These results are taken from ChEMBL document CHEMBL3351377, “Scaffold hopping towards potent and selective JAK3 inhibitors: discovery of novel C-5 substituted pyrrolopyrazines” (Bioorg Med Chem Lett, 2014).

The test deals with Tyrosine-protein kinase JAK1 (Homo sapiens, UniProt P23458).

In turn, `CN1CCN(c2ncc(-c3cnc4[nH]ccc4n3)c(N[C@H]3CCCN(S(C)(=O)=O)C3)n2)CC1` displayed an IC50 of 189 nM.

Turning to `CC[C@H](CO)Nc1ncc(-c2cnc3[nH]ccc3n2)c(N[C@H]2CCCN(S(C)(=O)=O)C2)n1`, the IC50 worked out at 287 nM.
